Results: publication PMC6350621, “Small-molecules that covalently react with a human prolyl hydroxylase – towards activity modulation and substrate capture” (Chemical Communications (Cambridge, England), 2018)

Key:
[1] = molecular target: T1, PHD2Δ (deletion of residues 238–250) (Homo sapiens, UniProt Q9GZT9, DEL238-250); test: Non-denaturing ESI-MS crosslinking, loop deletion variant; type: binding; conditions: equimolar Fe(II) and compound, 3 h, 37 °C, 200 V
T1 construct: PHD2_181–426 (hereafter PHD2); His6 (N, cleaved yes); made in house; host or cells: bacterial culture (2x TY, kanamycin, IPTG)
Procedure: The site of crosslinking of 3 was investigated using protein variants. First, 3 was incubated with C-terminal truncated PHD2 (PHD2_181–402) and a loop deletion variant (deletion of residues 238–250, PHD2Δ). […] Thus, 3 was incubated with PHD2 constructs truncated at residues 402, 410, 414 and 418. […] Crosslinking experiments with PHD2 R411M implied that R411 is not directly involved in crosslinking (Fig. S11, ESI ^†).
Fig. 3 (A) Non-denaturing ESI-MS data on the flexible loop truncated (top) and C-terminal tail tuncated (bottom) versions of PHD2 in the presence of equimolar Fe(II) and 3 (3 hour incubation, 37 °C. Cone voltage: 200 V). A = [PHD2Δ + Fe], B = [PHD2Δ + Fe + 3], C = [PHD2_181–402 + Fe], D = [PHD2_181–402 + Fe + 3]. (B) MS/MS spectrum of the trypsin derived peptide 403[…]411 crosslinked to 3 identified K408 as the site of crosslinking.

KDM4A = molecular target: T2, KDM4A (Homo sapiens, UniProt O75164); test: Denaturing MS covalent adduct formation with KDM4A; type: binding; conditions: enzyme 20 μM, Fe(II) 30 μM, compound 30 μM, 37 °C, 4 h
T2 sequence (O75164 1-1064): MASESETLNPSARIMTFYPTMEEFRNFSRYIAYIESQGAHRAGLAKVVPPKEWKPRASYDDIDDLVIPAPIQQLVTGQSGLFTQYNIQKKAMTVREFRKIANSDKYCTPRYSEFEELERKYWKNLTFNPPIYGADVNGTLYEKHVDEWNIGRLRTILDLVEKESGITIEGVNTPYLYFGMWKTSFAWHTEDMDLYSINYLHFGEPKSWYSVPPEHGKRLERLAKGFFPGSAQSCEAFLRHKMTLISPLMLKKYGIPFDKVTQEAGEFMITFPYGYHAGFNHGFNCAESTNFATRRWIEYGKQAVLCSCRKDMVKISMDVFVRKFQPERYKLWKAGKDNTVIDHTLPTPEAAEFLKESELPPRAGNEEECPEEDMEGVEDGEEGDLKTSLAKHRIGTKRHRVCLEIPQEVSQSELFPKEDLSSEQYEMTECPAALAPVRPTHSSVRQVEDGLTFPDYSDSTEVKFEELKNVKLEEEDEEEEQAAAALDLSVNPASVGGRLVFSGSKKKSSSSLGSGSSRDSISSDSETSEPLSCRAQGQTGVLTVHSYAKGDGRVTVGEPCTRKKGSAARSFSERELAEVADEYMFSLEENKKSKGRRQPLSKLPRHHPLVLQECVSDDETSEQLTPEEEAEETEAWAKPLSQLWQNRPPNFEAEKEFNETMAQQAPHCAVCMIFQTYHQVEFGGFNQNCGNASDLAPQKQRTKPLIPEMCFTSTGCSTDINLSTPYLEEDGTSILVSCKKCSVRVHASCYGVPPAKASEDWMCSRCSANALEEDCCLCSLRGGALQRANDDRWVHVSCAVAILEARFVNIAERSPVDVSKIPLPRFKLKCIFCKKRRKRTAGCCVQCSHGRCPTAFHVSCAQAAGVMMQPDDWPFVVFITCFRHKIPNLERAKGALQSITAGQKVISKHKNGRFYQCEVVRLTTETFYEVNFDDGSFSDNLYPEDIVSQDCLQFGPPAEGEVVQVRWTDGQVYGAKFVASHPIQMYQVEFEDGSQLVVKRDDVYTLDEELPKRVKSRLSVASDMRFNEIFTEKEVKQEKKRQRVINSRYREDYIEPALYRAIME
From the text: Ligands that covalently modify proteins are used for activity-based profiling by functionalisation with an appropriate handle.[20] […] This method for incorporation of a photoreactive group near the active site of a protein to enable substrate capture is complementary to ‘photoreactive site directed mutagenesis’.[21],[22] Azide 7 was designed for use as a tag to allow ‘click’ conjugation with a handle (e.g. biotin) for activity-based profiling, or as a photoreactive aryl azide for substrate capture. […] There is scope for optimisaiton and broader application of the approach described here. […] Work toward the application of 7 and derivatives in protein profiling and substrate capture in cells is ongoing.
HeLa cells were treated with the […]

T1 sequence (Q9GZT9 with tags, fused parts or gaps DEL238-250): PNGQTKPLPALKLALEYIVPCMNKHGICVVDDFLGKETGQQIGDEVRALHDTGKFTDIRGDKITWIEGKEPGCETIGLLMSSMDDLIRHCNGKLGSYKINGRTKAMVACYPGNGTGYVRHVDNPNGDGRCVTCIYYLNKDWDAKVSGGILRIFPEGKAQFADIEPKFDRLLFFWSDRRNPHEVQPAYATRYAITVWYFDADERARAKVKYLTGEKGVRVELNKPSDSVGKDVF

## C=CC(=O)Nc1cccc(C(=O)NCC(=O)O)c1O [compound 3]
[1]
  crosslinking with loop truncate: Crosslinking was maintained
KDM4A
  covalent reaction with KDM4A: did not accrue evidence
